The assay addresses CDK7/CycH/MNAT1 (Homo sapiens (Human), UniProt P50613). The assay is described as follows: Biochemical assay for CDK7 (TR-FRET kinase assay). The conditions noted are these: 60 min pre-incubation, 1 mM ATP; for inhibition at 10 µM: 10 μM compound, read-out: % inhibition @ 10 μM; for pIC50: read-out: IC50. The protocol: The ability of compounds to inhibit CDK7 kinase activity was tested in a TR-FRET assay using 5 nM of CDK7/CycH/MNAT1 obtained from Invitrogen, USA. Test compounds were pre-incubated with the kinase at room temperature for 60 min. After incubation, substrate mix [100 nM Ultra-light MBP (Perkin Elmer, USA) and 1 mM ATP (Sigma)] was added. The above reaction was stopped by the addition of 40 mM EDTA after 60 minutes of kinase reaction. 1 nM Eu-labelled antiphospho-MBP antibody [Perkin Elmer, USA] was added, mixed well and the fluorescence emission at 615 nm and 665 nm [excitation at 340 nm] was measured. The final DMSO concentration in the assay was 1%. For IC50 determination, appropriate concentrations were made by ⅓^rd serial dilutions of 10 mM DMSO stock solution of test compound. All the fluorescence measurements were made in a Victor 3 Multilabel Counter [Perkin Elmer, USA]. The IC50 was determined by fitting the dose response data to sigmoidal curve fitting equation using GraphPad Prism software V5. To identify compounds that inhibit CDK7 irreversibly, time depended inhibition studies were carried by pre-incubating compound with the enzyme at three time points (20, 60 and 180 min) and carrying out assay as described above.
For orientation: In TR-FRET formats the signal depends on donor and acceptor labels being close together.

The structures appear in SMILES notation. pIC50: −log10 of the molar value. Where only a bound is given, the exact number is not on record here.

Chain of CDK7/CycH/MNAT1 (P50613 whole entry): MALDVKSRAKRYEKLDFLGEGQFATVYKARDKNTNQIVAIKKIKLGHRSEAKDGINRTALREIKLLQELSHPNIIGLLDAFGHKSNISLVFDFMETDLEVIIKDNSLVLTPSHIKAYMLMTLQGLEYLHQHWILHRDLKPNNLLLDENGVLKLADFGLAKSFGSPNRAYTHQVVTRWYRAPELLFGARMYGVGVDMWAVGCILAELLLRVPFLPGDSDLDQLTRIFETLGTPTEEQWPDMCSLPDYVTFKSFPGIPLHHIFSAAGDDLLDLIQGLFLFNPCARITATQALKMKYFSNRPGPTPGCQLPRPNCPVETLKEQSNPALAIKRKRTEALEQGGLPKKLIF
Chain of CDK7/CycH/MNAT1 (P51946 whole entry partner): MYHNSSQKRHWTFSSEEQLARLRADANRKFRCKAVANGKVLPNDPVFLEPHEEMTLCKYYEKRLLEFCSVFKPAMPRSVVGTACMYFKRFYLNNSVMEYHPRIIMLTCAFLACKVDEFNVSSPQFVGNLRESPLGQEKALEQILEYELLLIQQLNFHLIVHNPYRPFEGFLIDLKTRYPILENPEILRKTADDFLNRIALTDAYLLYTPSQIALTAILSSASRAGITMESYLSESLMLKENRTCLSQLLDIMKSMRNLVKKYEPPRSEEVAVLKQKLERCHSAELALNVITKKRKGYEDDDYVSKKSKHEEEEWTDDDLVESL
Chain of CDK7/CycH/MNAT1 (P51948 whole entry partner): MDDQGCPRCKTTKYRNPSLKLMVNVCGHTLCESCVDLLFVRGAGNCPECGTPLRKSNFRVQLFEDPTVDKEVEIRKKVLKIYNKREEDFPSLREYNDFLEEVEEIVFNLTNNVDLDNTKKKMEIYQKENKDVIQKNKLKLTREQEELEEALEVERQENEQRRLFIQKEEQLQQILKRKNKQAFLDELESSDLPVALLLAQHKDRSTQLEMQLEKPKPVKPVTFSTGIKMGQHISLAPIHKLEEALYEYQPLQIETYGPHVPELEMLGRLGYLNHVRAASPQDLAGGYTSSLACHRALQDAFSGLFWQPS

`CC(C)c1cnn2c(NCc3cccc(NC/C=C/C(=O)N(C)C)c3)nc(NC3CCOCC3)nc12` [Compound 49, (E)-4-((3-(((8-isopropyl-2-((tetrahydro-2H-pyran-4-yl)amino)pyrazolo[1,5-a][1,3,5]triazin-4-yl)amino)methyl)phenyl)amino)-N,N-dimethylbut-2-enamide]: the inhibition (usually the relative decrease from the control value, in per cent) at 10 µM turned out to be 84% and the negative-log IC50 (pIC50) (commonly the negative decadic logarithm of the IC50, by convention in mol/L) is below 6.00.
The corresponding values for `CCN(CC)C/C=C/C(=O)Nc1cccc(CNc2nc(NC3CCOCC3)nc3c(C(C)C)cnn23)c1` [Compound 50, (E)-4-(diethylamino)-N-(3-(((8-isopropyl-2-((tetrahydro-2H-pyran-4-yl)amino)pyrazolo[1,5-a][1,3,5]triazin-4-yl)amino)methyl)phenyl)but-2-enamide] are 97% and above 6.52.
As for `CC(C)c1cnn2c(NCc3cccc(NC(=O)/C=C/CN4CCOCC4)c3)nc(NC3CCOCC3)nc12` [Compound 51, (E)-N-(3-(((8-isopropyl-2-((tetrahydro-2H-pyran-4-yl)amino)pyrazolo[1,5-a][1,3,5]triazin-4-yl)amino)methyl)phenyl)-4-morpholinobut-2-enamide], the inhibition at 10 µM came out at 91% and the pIC50 was 6.00 to 6.52.
For the molecule `CCN1CCN(C/C=C/C(=O)Nc2cccc(CNc3nc(NC4CCOCC4)nc4c(C(C)C)cnn34)c2)CC1` [Compound 52, (E)-4-(4-ethylpiperazin-1-yl)-N-(3-(((8-isopropyl-2-((tetrahydro-2H-pyran-4-yl)amino)pyrazolo[1,5-a][1,3,5]triazin-4-yl)amino)methyl)phenyl)but-2-enamide], the inhibition at 10 µM came out at 96%.
`CC(C)c1cnn2c(NCc3cccc(NC(=O)/C=C/CN(C)C)c3)nc(NC3CCOCC3)nc12` [Compound 53, (E)-4-(dimethylamino)-N-(3-(((8-isopropyl-2-((tetrahydro-2H-pyran-4-yl)amino)pyrazolo[1,5-a][1,3,5]triazin-4-yl)amino)methyl)phenyl)but-2-enamide]: the inhibition at 10 µM is 99% and the pIC50 is above 6.52.
On to `CC(C)c1cnn2c(NCc3cccc(NC(=O)/C=C/CN4CCCC4)c3)nc(NC3CCOCC3)nc12` [Compound 54, (E)-N-(3-(((8-isopropyl-2-((tetrahydro-2H-pyran-4-yl)amino)pyrazolo[1,5-a][1,3,5]triazin-4-yl)amino)methyl)phenyl)-4-(pyrrolidin-1-yl)but-2-enamide], for which the inhibition at 10 µM was found to be 98% and the pIC50 is above 6.52.
Consider `CC(C)c1cnn2c(NCc3cccc(NC(=O)/C=C/CN4CCCCC4)c3)nc(NC3CCOCC3)nc12` [Compound 55, (E)-N-(3-(((8-isopropyl-2-((tetrahydro-2H-pyran-4-yl)amino)pyrazolo[1,5-a][1,3,5]triazin-4-yl)amino)methyl)phenyl)-4-(piperidin-1-yl)but-2-enamide], for which the inhibition at 10 µM turned out to be 99% and the pIC50 was above 6.52.
For `CC(C)c1cnn2c(NCc3cccc(NC(=O)/C=C/CN4CCC(F)C4)c3)nc(NC3CCOCC3)nc12` (centres unmarked) [Compound 56, (E)-4-(3-fluoropyrrolidin-1-yl)-N-(3-(((8-isopropyl-2-((tetrahydro-2H-pyran-4-yl)amino)pyrazolo[1,5-a][1,3,5]triazin-4-yl)amino)methyl)phenyl)but-2-enamide] the same measures were 97% and above 6.52.
For `CC(C)c1cnn2c(NCc3cccc(NC(=O)/C=C/CN4CCC(F)(F)C4)c3)nc(NC3CCOCC3)nc12` [Compound 57, (E)-4-(3,3-difluoropyrrolidin-1-yl)-N-(3-(((8-isopropyl-2-((tetrahydro-2H-pyran-4-yl)amino)pyrazolo[1,5-a][1,3,5]triazin-4-yl)amino)methyl)phenyl)but-2-enamide] the same measures were 84% and below 6.00.
For `CC(C)c1cnn2c(NCc3cccc(NC(=O)/C=C/CN4CCCC(F)C4)c3)nc(NC3CCOCC3)nc12` (centres unmarked) [Compound 58, (E)-4-(3-fluoropiperidin-1-yl)-N-(3-(((8-isopropyl-2-((tetrahydro-2H-pyran-4-yl)amino)pyrazolo[1,5-a][1,3,5]triazin-4-yl)amino)methyl)phenyl)but-2-enamide] the same measures were 96% and 6.00 to 6.52.
Consider `CC(C)c1cnn2c(NCc3cc(F)cc(NC(=O)/C=C/CN(C)C)c3)nc(NC3CCOCC3)nc12` [Compound 59, (E)-4-(dimethylamino)-N-(3-fluoro-5-(((8-isopropyl-2-((tetrahydro-2H-pyran-4-yl)amino)pyrazolo[1,5-a][1,3,5]triazin-4-yl)amino)methyl)phenyl)but-2-enamide], for which the inhibition at 10 µM stood at 98% and the pIC50 was above 6.52.
For `CC(C)c1cnn2c(NCc3cccc(NC(=O)/C=C/CN(C)C)c3F)nc(NC3CCOCC3)nc12` [Compound 60, (E)-4-(dimethylamino)-N-(2-fluoro-3-(((8-isopropyl-2-((tetrahydro-2H-pyran-4-yl)amino)pyrazolo[1,5-a][1,3,5]triazin-4-yl)amino)methyl)phenyl)but-2-enamide] the same measures were 98% and above 6.52.
As to `CC(C)c1cnn2c(NCc3cc(F)cc(NC(=O)/C=C/CN4CCOCC4)c3)nc(NC3CCOCC3)nc12` [Compound 61, (E)-N-(3-fluoro-5-(((8-isopropyl-2-((tetrahydro-2H-pyran-4-yl)amino)pyrazolo[1,5-a][1,3,5]triazin-4-yl)amino)methyl)phenyl)-4-morpholinobut-2-enamide], the inhibition at 10 µM turned out to be 76% and the negative-log IC50 (pIC50) is below 6.00.
For the molecule `CC(C)c1cnn2c(NCc3ccccc3NC(=O)/C=C/CN(C)C)nc(NC3CCOCC3)nc12` [Compound 62, (E)-4-(dimethylamino)-N-(2-(((8-isopropyl-2-((tetrahydro-2H-pyran-4-yl)amino)pyrazolo[1,5-a][1,3,5]triazin-4-yl)amino)methyl)phenyl)but-2-enamide], the inhibition at 10 µM came to 97% and the pIC50 is above 6.52.
As to `CC(C)c1cnn2c(NCc3ccc(NC(=O)/C=C/CN4CCCC4)cc3)nc(NC3CCOCC3)nc12` [Compound 63, (E)-N-(4-(((8-isopropyl-2-((tetrahydro-2H-pyran-4-yl)amino)pyrazolo[1,5-a][1,3,5]triazin-4-yl)amino)methyl)phenyl)-4-(pyrrolidin-1-yl)but-2-enamide], the inhibition at 10 µM was determined as 94% and the pIC50 was 6.00 to 6.52.
On to `CC(C)c1cnn2c(NCc3ccc(F)c(NC(=O)C4CCN(C(=O)/C=C/CN(C)C)C4)c3)nc(NC3CCOCC3)nc12` (centres unmarked) [Compound 64, (E)-1-(4-(dimethylamino)but-2-enoyl)-N-(2-fluoro-5-(((8-isopropyl-2-((tetrahydro-2H-pyran-4-yl)amino)pyrazolo[1,5-a][1,3,5]triazin-4-yl)amino)methyl)phenyl) pyrrolidine-3-carboxamide], for which the inhibition at 10 µM worked out at 91% and the pIC50 is 6.00 to 6.52.
For `C/C=C/C(=O)N1CCC1C(=O)Nc1cccc(CNc2nc(NC3CCOCC3)nc3c(C(C)C)cnn23)c1` (centres unmarked) [Compound 65, (E)-1-(but-2-enoyl)-N-(3-(((8-isopropyl-2-((tetrahydro-2H-pyran-4-yl)amino)pyrazolo[1,5-a][1,3,5]triazin-4-yl)amino)methyl)phenyl)azetidine-2-carboxamide] the same measures were 86% and below 6.00.
For the molecule `C#CC(=O)N1CCC1C(=O)Nc1cccc(CNc2nc(NC3CCOCC3)nc3c(C(C)C)cnn23)c1` (centres unmarked) [Compound 66, N-(3-(((8-isopropyl-2-((tetrahydro-2H-pyran-4-yl)amino)pyrazolo[1,5-a][1,3,5]triazin-4-yl)amino)methyl)phenyl)-1-propioloylazetidine-2-carboxamide], the inhibition at 10 µM was 98% and the negative logarithm of the IC50 (pIC50) is above 6.52.
With `C=C(C)C(=O)N1CCC1C(=O)Nc1cccc(CNc2nc(NC3CCOCC3)nc3c(C(C)C)cnn23)c1` (centres unmarked) [Compound 67, N-(3-(((8-isopropyl-2-((tetrahydro-2H-pyran-4-yl)amino)pyrazolo[1,5-a][1,3,5]triazin-4-yl)amino)methyl)phenyl)-1-methacryloylazetidine-2-carboxamide], the inhibition at 10 µM came to 91% and the pIC50 was 6.00 to 6.52.
For `COC/C=C/C(=O)N1CCC(C(=O)Nc2cccc(CNc3nc(NC4CCOCC4)nc4c(C(C)C)cnn34)c2)C1` (centres unmarked) [Compound 68, (E)-N-(3-(((8-isopropyl-2-((tetrahydro-2H-pyran-4-yl)amino)pyrazolo[1,5-a][1,3,5]triazin-4-yl)amino)methyl)phenyl)-1-(4-methoxybut-2-enoyl)pyrrolidine-3-carboxamide], the inhibition at 10 µM was 92% and the pIC50 was 6.00 to 6.52.
On to `CC(C)c1cnn2c(NCc3cc(NC(=O)C4CCN(C(=O)/C=C/CN(C)C)C4)ccc3F)nc(NC3CCOCC3)nc12` (centres unmarked) [Compound 70, (E)-1-(4-(dimethylamino)but-2-enoyl)-N-(4-fluoro-3-(((8-isopropyl-2-((tetrahydro-2H-pyran-4-yl)amino)pyrazolo[1,5-a][1,3,5]triazin-4-yl)amino)methyl)phenyl)pyrrolidine-3-carboxamide], for which the inhibition at 10 µM was 85% and the pIC50 was 6.00 to 6.52.

The values above are taken from US11186576B2, “Pyrazolo[1,5-A][1,3,5]triazine and pyrazolo[1,5-A]pyrimidine derivatives as CDK inhibitors” (Aurigene Discovery Technologies Limited, priority 2015, dated 2021).
